In US7767646B2, “Methods of screening for compounds that modulate TAFIa activity, compounds, and methods of using the compounds” (American Diagnostica, Inc., priority 2002, dated 2010):
“Also recorded” adds a separate entry of the source. Like-named read-outs stand apart in the source and are kept apart here.

Tests used:
Assay type in all cases: biochemical
[1] = biological target: T1, TAFI (Homo sapiens, UniProt Q96IY4); assay: TAFI activation by thrombin/thrombomodulin, SDS-PAGE; conditions: aliquots after 20 minutes, SDS-PAGE (FIG. 4)
T1 construct: purchased Hematological Associates (Essex Junction, Vt.)
T1 sequence (Q96IY4 23-423 limits assumed): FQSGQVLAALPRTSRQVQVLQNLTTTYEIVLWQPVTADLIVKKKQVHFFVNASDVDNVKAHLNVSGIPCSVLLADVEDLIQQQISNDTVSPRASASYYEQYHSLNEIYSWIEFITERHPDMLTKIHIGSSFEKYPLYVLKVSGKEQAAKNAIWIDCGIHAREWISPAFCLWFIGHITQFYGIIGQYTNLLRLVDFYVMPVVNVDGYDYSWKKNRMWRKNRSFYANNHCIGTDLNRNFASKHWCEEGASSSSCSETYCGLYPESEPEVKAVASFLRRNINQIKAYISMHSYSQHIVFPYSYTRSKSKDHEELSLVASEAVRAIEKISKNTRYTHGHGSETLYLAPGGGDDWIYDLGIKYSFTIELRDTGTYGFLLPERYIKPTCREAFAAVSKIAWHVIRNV
Method: After 20 minutes, aliquots were removed and analyzed by SDS-PAGE. Lane 1. Acetylsalicylic acid; 2. Salicylic acid; 3. 4-hydroxybenzoic acid; 4. 2-hydroxybenzoic acid (salicyluric acid); 5. Ibuprofen; 6. Acetominophen; 7 Control with no addition; 8. TAFI.
Not only, then, do SA and SU inhibit enzyme activity, they also retard the generation of TAFIa. Without being bound by any theory, this provides a dual mechanism by which fibrinolysis is enhanced during high dose aspirin therapy. The proposed pathways by which aspirin and its major metabolites SA and SU enhance fibrinolysis through inhibition of TAFI is presented in FIG. 5. […] Undas et al., 2001, Blood 98:2423-31.

[2] = biological target: T2, TAFIa (Homo sapiens, UniProt Q96IY4); assay: TAFIa carboxypeptidase activity, ActiFLUOR TAFIa fluorescence-based assay; set-up: purchased American Diagnostica Inc. (Greenwich, Conn.) 3874TAFIa; conditions: for effect on TAFIa carboxypeptidase activity (residual TAFIa activity): incubation 1 hour at room temperature, various concentrations
T2 sequence (Q96IY4 115-423): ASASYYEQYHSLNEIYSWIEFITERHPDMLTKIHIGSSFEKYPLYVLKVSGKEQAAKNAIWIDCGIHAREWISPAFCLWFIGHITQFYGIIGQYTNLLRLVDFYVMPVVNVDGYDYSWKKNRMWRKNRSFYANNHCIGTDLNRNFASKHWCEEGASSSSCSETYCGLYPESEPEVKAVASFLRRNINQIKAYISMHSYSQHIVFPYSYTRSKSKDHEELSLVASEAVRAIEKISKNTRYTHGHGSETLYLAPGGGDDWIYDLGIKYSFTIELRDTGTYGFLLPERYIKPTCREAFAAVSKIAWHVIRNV
Method: Residual TAFIa activity was measured using ActiFLUOR TAFIa.
Residual TAFIa activity was measured using ActiFLUOR TAFIa. […] About 60% TAFIa activity is lost at 25 mM SA.
Materials. TAFI was purchased from Hematological Associates (Essex Junction, Vt.) and TAFIa (3874TAFIa) was from American Diagnostica Inc. (Greenwich, Conn.). Carboxypeptidase activity of TAFIa was determined using ACTIFLUOR™ TAFI (#874FX) a fluorescence-based assay from American Diagnostica (Greenwich, Conn.). ASA, SA and SU were obtained from Sigma Chemical Co. (St. Louis, Mo.).
Results. The present inventors have made the surprising discovery that ASA, SA and SU may shift the hemostatic balance toward a profibrinolytic state by inhibition of TAFIa, the major regulator of fibrinolysis. TAFIa was incubated with various concentrations of ASA, SA and SU for one hour, at room temperature. Residual TAFIa activity was measured using ActiFLUOR TAFIa. […] Catella-Lawson and coworkers recently reported that ibuprofen, taken prior to aspirin, blocks the irreversible inhibition of COX-1 by aspirin and abrogates the anti-platelet activity of aspirin. Catella-Lawson, F. et al., 2001, N. Engl. J. Med. 345(25):1809-17. Since ibuprofen has little effect on TAFI, it was reasonable to conclude that ibuprofen taken prior to aspirin would not block the profibrinolytic activity of aspirin caused by TAFI inhibition.

[3] = biological target: T2, TAFIa; assay: ActiScreen TAFI HTS assay (TAFIa carboxypeptidase, hippuryl-L-lysine/LOX/HRP); set-up: made in house; host or cells: native human TAFI (not recombinant)
Method: The activity of the chemical compounds was assessed in the ActiScreen® TAFI HTS assay, the principle of which is shown below.
The assay is run by mixing TAFIa and test compound in microtiter plate wells. “TAFI developer” is then added to start the reaction which is run at room temperature. The TAFI developer is formulated with hippuryl-L-lysine, lysine oxidase, horseradish peroxidase and ortho-phenylene-diamine. Hippuryl-L-lysine is converted by TAFIa to hippuric acid and L-lysine. Lysine-Oxidase (LOX) converts the lysine to 6-amino-2-oxo-hexanoic acid and hydrogen peroxide. The hydrogen peroxide is used along with ortho-phenylene-diamine […] as substrate for horseradish peroxidase. The reaction produces a yellow color that was monitored for Vmax in a spectrophotometer (SpectroMax 190, Molecular Devices, Sunnyvale, Calif.) in the kinetic mode at 450 nm.
The assay can also be run as an endpoint reaction in which the enzymatic reaction is stopped at a selected point in time with 0.5 M sulphuric acid. The resulting color is read at 490 nm. A TAFI inhibitor will block the first reaction in the cascade in which TAFIa converts hippuryl-L-lysine to hippuric acid and lysine, which finally results in a decrease in Vmax or OD 490 nm relative to control reaction without addition of test compound. The assay has been designed to be run in final concentrations of DMSO of up to 20%. A known inhibitor of TAFIa carboxypeptidase activity, potato tuber carboxypeptidase inhibitor (PTCI), is used as a positive control.
Positive hits were selected based upon the ability of compounds to inhibit carboxypeptidase activity of TAFIa, as measured in the ActiScreen assay. The major criterion for selection of “hits” was based on their potency, as determined by the concentration of compound that inhibits the activity of TAFIa in the Actiscreen TAFI assay by 50% (“IC50”).

[4] = biological target: T3, Carboxypeptidase N(CPN) (Homo sapiens, UniProt P15169); assay: Specificity against Carboxypeptidase N in pooled normal human plasma; conditions: PNP (1:10), serially diluted compound
T3 construct: pooled normal human plasma (PNP) was used as the source of CPN; from tissue; host or cells: pooled normal human plasma (PNP), diluted 1:10
T3 sequence (P15169 21-458): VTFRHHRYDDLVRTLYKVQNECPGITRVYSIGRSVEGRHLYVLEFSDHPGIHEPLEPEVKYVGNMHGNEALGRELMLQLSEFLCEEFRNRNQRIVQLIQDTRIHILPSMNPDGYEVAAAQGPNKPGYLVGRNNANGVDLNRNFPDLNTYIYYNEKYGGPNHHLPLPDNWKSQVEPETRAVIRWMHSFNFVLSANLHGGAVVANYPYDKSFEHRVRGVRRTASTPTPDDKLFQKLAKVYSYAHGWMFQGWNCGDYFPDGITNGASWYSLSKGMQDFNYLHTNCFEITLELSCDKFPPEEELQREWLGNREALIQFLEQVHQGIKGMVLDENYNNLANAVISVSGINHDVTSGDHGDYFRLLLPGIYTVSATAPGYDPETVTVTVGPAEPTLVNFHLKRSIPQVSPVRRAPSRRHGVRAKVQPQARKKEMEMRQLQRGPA
T3 sequence (P22792 22-545 partner): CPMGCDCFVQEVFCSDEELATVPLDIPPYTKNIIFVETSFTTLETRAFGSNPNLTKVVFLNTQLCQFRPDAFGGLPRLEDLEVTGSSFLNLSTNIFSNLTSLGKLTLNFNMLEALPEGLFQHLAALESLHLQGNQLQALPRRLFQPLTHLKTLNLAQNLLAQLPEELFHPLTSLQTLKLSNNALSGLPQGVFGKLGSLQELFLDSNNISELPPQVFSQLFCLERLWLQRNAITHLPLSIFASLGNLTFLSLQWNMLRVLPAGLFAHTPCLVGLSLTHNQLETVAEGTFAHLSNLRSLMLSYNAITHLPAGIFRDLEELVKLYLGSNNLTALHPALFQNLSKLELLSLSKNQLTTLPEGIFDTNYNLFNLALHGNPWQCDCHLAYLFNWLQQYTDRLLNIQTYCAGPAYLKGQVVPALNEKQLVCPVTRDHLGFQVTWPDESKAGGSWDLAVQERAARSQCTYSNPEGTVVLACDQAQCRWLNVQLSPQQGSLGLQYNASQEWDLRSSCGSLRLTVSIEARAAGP
Method: L278R was also tested for specificity against Carboxypeptidase N(CPN). CPN is the constituitively active carboxypeptidase B-like enzyme in plasma. In this study, pooled normal human plasma (PNP) was used as the source of CPN. The specificity studies were performed by adding PNP (1:10), ActiScreen developer and serially diluted test compound into microtiter wells. Inhibition of color development was an indication of inhibitory activity towards CPN.

[5] = tested on: LOX/HRP; assay: Dereplication assay: reaction of LOX/HRP with lysine; conditions: concentrations 5-10 times greater than IC50 for TAFI
Method: Positive hits identified with the ActiScreen TAFI assay were dereplicated to ensure that the inhibition of color development is due to blocking of the first reaction of the linked enzyme system catalyzed by TAFIa and not to inhibition of LOX or HRP.
Compounds L278R and LT32 were tested in the dereplication assay, described above.

[6] = biological target: T2, TAFIa; assay: TAFIa inhibition with Actichrome 874 TAFI Developer (Vmax); set-up: purchased American Diagnostica Inc. (Greenwich, Conn.) 3874TAFIa; conditions: different concentrations, Vmax (FIG. 6)
Method: Different concentrations of gentisic acid (GA) were incubated with TAFIa and Actichrome 874 TAFI Developer. TAFI activity (Vmax) was determined.

CC(=O)Oc1ccccc1C(=O)O [ASA, acetylsalicylic acid]
effect on activation of TAFI to TAFIa by thrombin/thrombomodulin [1]: did not appear to have a significantly effect
concentration at which significant inhibition of TAFI activity occurs ([2]; incubation 1 hour at room temperature (FIG. 1)): ~600 µg/mL
effect on TAFIa carboxypeptidase activity (residual TAFIa activity) [2]: directly inhibited; also recorded: inhibited in a dose-dependent manner

O=C(N[C@H](CO)Cc1ccccc1)c1cc(O)ccc1O [JV59, N-[(S)-1-hydroxy-3-phenyl-2-propyl]-2,5-dihdroxybenzamide]
IC50 [3]: 44 µM

NCCCNC(=O)OCCNC(=O)c1ccccc1O [L278R, 2-(2-hydroxybenzoylamino)ethyl N-(3-aminopropyl)carbamate]
IC50 ([3]; TAFIa preincubated with compound 1 hour at 4° C. prior to assay): 890 µM
type of inhibition of TAFIa ([3]; no preincubation): competitive type inhibitor
IC50 ([3]; no preincubation, assay as in Example 3): 1540 µM
type of inhibition of TAFIa ([3]; preincubated 1 hour at 4° C.): non-competitive-type inhibitor
inhibition of CPN [4]: did not inhibit CPN
effect on reaction rate (Vmax) of LOX/HRP with lysine [5]: Neither of the compounds had a significant effect

O=C(NCCNC(=O)c1cc(OCc2ccccc2)ccc1OCc1ccccc1)OCCNC(=O)c1ccccc1O [LT32]
IC50 [3]: 225 µM
type of inhibition of TAFIa ([3]; no preincubation): competitive inhibitor
effect on reaction rate (Vmax) of LOX/HRP with lysine [5]: Neither of the compounds had a significant effect

O=C(O)c1ccccc1O [SA, salicylic acid]
effect on activation of TAFI to TAFIa by thrombin/thrombomodulin [1]: inhibit activation of TAFI to TAFIa
effect on activation of TAFI to TAFIa by thrombin/thrombomodulin ([1]; listed as salicylic acid): inhibit the activation of TAFI
TAFIa activity lost ([2]; 25 mM, room temperature, 1 hour (FIG. 3)): About 60%
effect on TAFIa carboxypeptidase activity (residual TAFIa activity) [2]: directly inhibited; also recorded: inhibited in a dose-dependent manner

O=C(O)CNC(=O)c1ccccc1O [SU, salicyluric acid (2-hydroxyhippuric acid)]
effect on activation of TAFI to TAFIa by thrombin/thrombomodulin [1]: inhibit activation of TAFI to TAFIa
effect on activation of TAFI to TAFIa by thrombin/thrombomodulin ([1]; listed as 2-hydroxybenzoic acid (salicyluric acid)): inhibit the activation of TAFI
rank of potency as TAFIa inhibitor ([2]; SU vs SA vs ASA, 1 hour at room temperature): most effective inhibitor
effect on TAFIa carboxypeptidase activity (residual TAFIa activity) [2]: directly inhibited; also recorded: inhibited in a dose-dependent manner

CC(=O)Nc1ccc(O)cc1 [acetominophen]
effect on TAFIa carboxypeptidase activity (residual TAFIa activity) [2]: little inhibitory effect

O=C(O)c1cc(O)ccc1O [gentisic acid]
type of inhibition of TAFIa [6]: competitive inhibition

CC(C)Cc1ccc(C(C)C(=O)O)cc1 (stereo not drawn) [ibuprofen]
effect on TAFIa carboxypeptidase activity (residual TAFIa activity) [2]: little inhibitory effect
